This is an account of results in ChEMBL document CHEMBL1131642, “Synthesis and antibacterial activity of O-methyl derivatives of azalide antibiotics: I. 4", 11 and 12-OMe derivatives via direct methylation” (1998).

Converted amounts (≈) assume the structure as drawn.

Holding throughout (format): functional
One assay has as its system Enterococcus faecalis. Kind of assay: Minimum inhibitory concentration against macrolide susceptible strain of Enterococcus faecalis (MB5407).
Another assay concerns Streptococcus pneumoniae. The assay can be described thus: Minimum inhibitory concentration against macrolide susceptible strain of Streptococcus pneumoniae (MB3957).
Another assay deals with Enterococcus faecium. Kind of assay: Minimum inhibitory concentration against macrolide susceptible strain of Enterococcus faecium (MB5516).
The test system of a further assay is Bacillus subtilis. Kind of assay: Minimum inhibitory concentration against macrolide susceptible strains of Bacillus subtilis (MB5586).
Another assay concerns Staphylococcus aureus. Kind of assay: Minimum inhibitory concentration against macrolide susceptible strain of Staphylococcus aureus (MB2865).
The test system of another assay is Streptococcus pyogenes. Kind of assay: Minimum inhibitory concentration against macrolide susceptible strain of Streptococcus pyogenes (MB2874).

As to `CC[C@H]1OC(=O)[C@H](C)[C@@H](O[C@H]2C[C@@](C)(OC)[C@@H](OC)[C@@H](C)O2)[C@H](C)[C@@H](O[C@@H]2O[C@H](C)C[C@@H](N(C)C)[C@H]2O)[C@](C)(O)C[C@@H](C)N(C)C[C@H](C)[C@@H](O)[C@]1(C)O`, the MIC in the assay with Enterococcus faecalis was 8 µg/mL (≈ 10.5 µM); in the assay with Streptococcus pneumoniae it was 0.5 µg/mL (≈ 0.655 µM); in the assay on Enterococcus faecium it was 2 µg/mL (≈ 2.62 µM); with Bacillus subtilis, 4 µg/mL (≈ 5.24 µM); against Staphylococcus aureus, 8 µg/mL (≈ 10.5 µM); with Streptococcus pyogenes, 0.03 µg/mL (≈ 0.0393 µM).

Take `CC[C@H]1OC(=O)[C@H](C)[C@@H](O[C@H]2C[C@@](C)(OC)[C@@H](OC)[C@@H](C)O2)[C@H](C)[C@@H](O[C@@H]2O[C@H](C)C[C@@H](N(C)C)[C@H]2O)[C@](C)(O)C[C@@H](C)N(C)C[C@H](C)[C@@H](OC)[C@]1(C)O`: the MIC turned out to be 32 µg/mL (≈ 41.2 µM) against Enterococcus faecalis; 2 µg/mL (≈ 2.57 µM) in the assay with Streptococcus pneumoniae; 16 µg/mL (≈ 20.6 µM) against Enterococcus faecium; 16 µg/mL (≈ 20.6 µM) against Bacillus subtilis; 32 µg/mL (≈ 41.2 µM) in the assay with Staphylococcus aureus; 0.5 µg/mL (≈ 0.643 µM) with Streptococcus pyogenes.

Consider `CC[C@H]1OC(=O)[C@H](C)[C@@H](O[C@H]2C[C@@](C)(OC)[C@@H](OC)[C@@H](C)O2)[C@H](C)[C@@H](O[C@@H]2O[C@H](C)C[C@@H](N(C)C)[C@H]2O)[C@](C)(O)C[C@@H](C)N(C)C[C@H](C)[C@@H](O)[C@]1(C)OC`, for which the MIC amounted to 16 µg/mL (≈ 20.6 µM) against Enterococcus faecalis; 1 µg/mL (≈ 1.29 µM) in the assay with Streptococcus pneumoniae; 4 µg/mL (≈ 5.15 µM) against Enterococcus faecium; 4 µg/mL (≈ 5.15 µM) in the assay on Bacillus subtilis; 8 µg/mL (≈ 10.3 µM) against Staphylococcus aureus; 0.25 µg/mL (≈ 0.322 µM) in the assay with Streptococcus pyogenes.

For the molecule `CC[C@H]1OC(=O)[C@H](C)[C@@H](O[C@H]2C[C@@](C)(OC)[C@@H](OC)[C@@H](C)O2)[C@H](C)[C@@H](O[C@@H]2O[C@H](C)C[C@@H](N(C)C)[C@H]2O)[C@](C)(O)C[C@@H](C)CN(C)[C@H](C)[C@@H](OC)[C@]1(C)OC`, the MIC against Enterococcus faecalis is 16 µg/mL (≈ 20.2 µM); in the assay with Streptococcus pneumoniae it was 1 µg/mL (≈ 1.26 µM); with Enterococcus faecium, 4 µg/mL (≈ 5.06 µM); in the assay with Bacillus subtilis, 8 µg/mL (≈ 10.1 µM); against Staphylococcus aureus it was 8 µg/mL (≈ 10.1 µM); with Streptococcus pyogenes, 0.25 µg/mL (≈ 0.316 µM).

As for `CC[C@H]1OC(=O)[C@H](C)[C@@H](O[C@H]2C[C@@](C)(OC)[C@@H](O)[C@@H](C)O2)[C@H](C)[C@@H](O[C@@H]2O[C@H](C)C[C@@H](N(C)C)[C@H]2O)[C@](C)(O)C[C@@H](C)CN(C)[C@H](C)[C@@H](OC)[C@]1(C)OC`, the MIC with Enterococcus faecalis came out at 16 µg/mL (≈ 20.6 µM); in the assay with Streptococcus pneumoniae it was 1 µg/mL (≈ 1.29 µM); against Enterococcus faecium it was 2 µg/mL (≈ 2.57 µM); in the assay with Bacillus subtilis it was 4 µg/mL (≈ 5.15 µM); in the assay on Staphylococcus aureus, 8 µg/mL (≈ 10.3 µM); in the assay on Streptococcus pyogenes, 0.12 µg/mL (≈ 0.154 µM).

Take `CC[C@H]1OC(=O)[C@H](C)[C@@H](O[C@H]2C[C@@](C)(OC)[C@@H](O)[C@@H](C)O2)[C@H](C)[C@@H](O[C@@H]2O[C@H](C)C[C@@H](N(C)C)[C@H]2O)[C@](C)(O)C[C@@H](C)CN(C)[C@H](C)[C@@H](OC)[C@]1(C)O`: the MIC was 8 µg/mL (≈ 10.5 µM) against Enterococcus faecalis; 0.03 µg/mL (≈ 0.0393 µM) in the assay with Streptococcus pneumoniae; 0.5 µg/mL (≈ 0.655 µM) with Enterococcus faecium; 1 µg/mL (≈ 1.31 µM) in the assay with Bacillus subtilis; 1 µg/mL (≈ 1.31 µM) in the assay with Staphylococcus aureus; 0.03 µg/mL (≈ 0.0393 µM) in the assay with Streptococcus pyogenes.

For the molecule `CC[C@H]1OC(=O)[C@H](C)[C@@H](O[C@H]2C[C@@](C)(OC)[C@@H](O)[C@@H](C)O2)[C@H](C)[C@@H](O[C@@H]2O[C@H](C)C[C@@H](N(C)C)[C@H]2O)[C@](C)(O)C[C@@H](C)CN(C)[C@H](C)[C@@H](O)[C@]1(C)OC`, the MIC in the assay on Enterococcus faecalis worked out at 4 µg/mL (≈ 5.24 µM); against Streptococcus pneumoniae it was 0.03 µg/mL (≈ 0.0393 µM); in the assay on Enterococcus faecium it was 0.25 µg/mL (≈ 0.328 µM); with Staphylococcus aureus, 1 µg/mL (≈ 1.31 µM); in the assay on Streptococcus pyogenes it was 0.03 µg/mL (≈ 0.0393 µM).

In the case of `CC[C@H]1OC(=O)[C@H](C)[C@@H](O[C@H]2C[C@@](C)(OC)[C@H](O)[C@H](C)O2)[C@H](C)[C@@H](O[C@@H]2O[C@H](C)C[C@H](N(C)C)[C@H]2O)[C@](C)(O)C[C@@H](C)N(C)C[C@H](C)[C@@H](O)[C@]1(C)O`, the minimal inhibitory concentration (MIC) in the assay on Enterococcus faecalis is 2 µg/mL (≈ 2.67 µM); against Streptococcus pneumoniae, less than 0.06 µg/mL; with Enterococcus faecium it was 0.125 µg/mL (≈ 0.167 µM); against Bacillus subtilis, 0.3 µg/mL (≈ 0.401 µM); with Staphylococcus aureus, 0.3 µg/mL (≈ 0.401 µM); in the assay on Streptococcus pyogenes, less than 0.06 µg/mL.

On to `CC[C@H]1OC(=O)[C@H](C)[C@@H](O[C@H]2C[C@@](C)(OC)[C@@H](OC)[C@@H](C)O2)[C@H](C)[C@@H](O[C@@H]2O[C@H](C)C[C@@H](N(C)C)[C@H]2O)[C@](C)(O)C[C@@H](C)N(C)C[C@H](C)[C@@H](OC)[C@]1(C)OC`, for which the MIC in the assay on Enterococcus faecalis worked out at 32 µg/mL (≈ 40.5 µM); in the assay with Streptococcus pneumoniae, 4 µg/mL (≈ 5.06 µM); with Enterococcus faecium, 8 µg/mL (≈ 10.1 µM); in the assay on Bacillus subtilis, 2 µg/mL (≈ 2.53 µM); in the assay on Staphylococcus aureus, 32 µg/mL (≈ 40.5 µM); in the assay with Streptococcus pyogenes, 0.5 µg/mL (≈ 0.632 µM).

As to `CC[C@H]1OC(=O)[C@H](C)[C@@H](O[C@H]2C[C@@](C)(OC)[C@@H](O)[C@H](C)O2)[C@H](C)[C@@H](O[C@@H]2O[C@H](C)C[C@H](N(C)C)[C@H]2O)[C@](C)(O)C[C@@H](C)CN(C)[C@H](C)[C@@H](O)[C@]1(C)O` [AZITHROMYCIN], the MIC in the assay with Enterococcus faecalis is 4 µg/mL (≈ 5.34 µM); against Streptococcus pneumoniae, less than 0.06 µg/mL; with Enterococcus faecium, 0.25 µg/mL (≈ 0.334 µM); in the assay with Bacillus subtilis, 1 µg/mL (≈ 1.34 µM); in the assay with Staphylococcus aureus, 0.5 µg/mL (≈ 0.668 µM); in the assay on Streptococcus pyogenes, 0.03 µg/mL (≈ 0.0401 µM).
